Experimental data from US20050148653A1, “Polymaleimide compounds and their medical use” (priority 2001, published 2005).
Like-named read-outs stand apart in the source and are kept apart here.

Columns and labels:
Chlamydia trachomatis = assay: Chlamydia assay: transient treatment of Chlamydia with maleimides, infection of McCoy cells, iodine-stained inclusions counted; type: cell-based; conditions: for activity relative to bis maleimide equivalent: chlamydia infection of McCoy cells; for IODINE-STAINED INCLUSIONS/FIELD F1: field 1; for IODINE-STAINED INCLUSIONS/FIELD F2: field 2; for IODINE-STAINED INCLUSIONS/FIELD F3: field 3; for IODINE-STAINED INCLUSIONS/FIELD F4: field 4; for IODINE-STAINED INCLUSIONS/FIELD F5: field 5; for MEAN COUNT/FIELD (iodine-stained inclusions): mean of 5 fields; for TOTAL COUNT/FIELDS (iodine-stained inclusions): sum of 5 fields; for COMMENTS: inclusions seen on entire coverslip: re-examined under low power; for inhibition of the infection of McCoy cells with chlamydia: transient exposure of chlamydia to compound
Description: Purified Chlamydia trachomatis (250 μl) was added to 250 μl of each compound concentration and the mixtures incubated at room temperature for 5 minutes. The tubes were then centrifuged (15000 rpm, 15 minutes), the supernatant decanted and the pellet washed serum free MEM (with 0.5 mls). This step was repeated and the resultant pellet resuspended MEM (in 0.5 ml) and inoculated into a confluent shell vial (coverslip) cultures of McCoy cells. The cultures were centrifuged (3000 rpm, 1 hour at 37° C.) and incubated for a further 2 hours prior to being changed onto MEM with 10% foetal calf serum, I μg/rl cycloheximide, 0.5% added glucose, vancomycin, streptomycin and amphoteracin B (Fungizone). The cultures were incubated for 68 hours, fixed in methanol and stained with Lugol's iodine. 3 replicates of each positive control (with and without DMSO) were included, as well as 2 uninoculated cell controls. Each coverslip culture was examined using low power (10×) objective to ensure that inclusions were evenly distributed and 5 high power (×40) fields were selected at random from different areas of the coverslip. Iodine stained inclusions were counted. Where no inclusions were seen on high power, the culture was re-examined under low power. Table 1. Effect of Transient Treatment with maleimides on Chlamydia Infection of McCoy Cell In Vitro. Chlamydia was pre-treated with each of the indicated maleimides for 5 minutes and the compound removed by centrifugation. McCoy cells were then exposed to the compound pre-treated chlamydia for 68 hours and inclusions counted following staining of cells with Lugols iodine.

HIV (IHV-1RF) = assay: Anti-viral (virucidal) assay: plate-bound HIV treated 10 minutes, C8166 cells added, syncytium score and XTT; type: cell-based; conditions: for Syncytia score day 5 (quadruplicate wells) / Syncytia score day 6 (quadruplicate wells): C8166 cells; for Mean Optical Readings at 450 nm: XTT cell viability
Description: HIV was attached to the surface of 96-well cell culture plates using 100 μl of 50 μg/ml poly-L-lysine hydrobromide (PLL) of molecular weight >300 K for 1 h at RT. The outer wells were left uncoated and filled with 250 μl of PBS to counteract the effects of evaporation. The coated wells were washed twice with PBS and 25 μl of RPMI 1640 medium containing 5×10^3 TCID50 of IHV-1RF was added and incubated for 1 h at RT. The wells were then washed twice with PBS and 25 μl of varying concentrations of the test compounds made up with serum free medium (containing a constant 10% DMSO) were added to the wells in quadruplicate and the plates incubated at 37° C. for 10 minutes. The wells were again washed twice with PBS and 5×10^4 C8166 cells in a volume of 300 μl distributed to each well and the plates incubated for 5 and 6 days respectively. On days 5 and 6 the cells were assessed microscopically for the presence of cytopathic effect (syncytium formation) and recorded. In order to quantify the cytopathic effect, XIT which is metabolised by viable but not dead cells, was added and the absorbance read at 450 nm after […] incubation at 37° C.
An assessment of viral cytopathic effect was made microscopically on days 5 and 6, but the end point of the experiment was on day 6 when the level of virus infection (as determined by cell viability) was quantified by the use of XTT.

[1] = final conc 0.02 (M), working conc 0.04 (M)
[2] = final conc 0.4 (M), working conc 0.8 (M)
[3] = final conc 1 (M), working conc 2 (M), 5 minutes pre-treatment, McCoy cells 68 hours
[4] = final conc 1 (M), working conc 2 (M)

## CCN1C(=O)C=CC1=O [Compound 4, Ethyl maleimide]
Chlamydia trachomatis
  activity relative to bis maleimide equivalent: less active than its bis maleimide equivalent
  inhibition of the infection of McCoy cells with chlamydia: dose-dependent inhibition
Chlamydia trachomatis; [1]
  IODINE-STAINED INCLUSIONS/FIELD F1: 1 inclusions/field
  IODINE-STAINED INCLUSIONS/FIELD F2: 11 inclusions/field
  IODINE-STAINED INCLUSIONS/FIELD F3: 6 inclusions/field
  IODINE-STAINED INCLUSIONS/FIELD F4: 4 inclusions/field
  IODINE-STAINED INCLUSIONS/FIELD F5: 2 inclusions/field
  MEAN COUNT/FIELD (iodine-stained inclusions): 5 inclusions/field
  TOTAL COUNT/FIELDS (iodine-stained inclusions): 24
Chlamydia trachomatis; [2]
  IODINE-STAINED INCLUSIONS/FIELD F1: 0 inclusions/field
  IODINE-STAINED INCLUSIONS/FIELD F2: 0 inclusions/field
  IODINE-STAINED INCLUSIONS/FIELD F3: 0 inclusions/field
  IODINE-STAINED INCLUSIONS/FIELD F4: 0 inclusions/field
  IODINE-STAINED INCLUSIONS/FIELD F5: 0 inclusions/field
  MEAN COUNT/FIELD (iodine-stained inclusions): 0 inclusions/field
  COMMENTS: inclusions seen on entire coverslip: No
  TOTAL COUNT/FIELDS (iodine-stained inclusions): 0
Chlamydia trachomatis; [3]
  IODINE-STAINED INCLUSIONS/FIELD F1: 0 inclusions/field
Chlamydia trachomatis; [4]
  IODINE-STAINED INCLUSIONS/FIELD F2: 0 inclusions/field
  IODINE-STAINED INCLUSIONS/FIELD F3: 0 inclusions/field
  IODINE-STAINED INCLUSIONS/FIELD F4: 0 inclusions/field
  IODINE-STAINED INCLUSIONS/FIELD F5: 0 inclusions/field
  MEAN COUNT/FIELD (iodine-stained inclusions): 0 inclusions/field
  COMMENTS: inclusions seen on entire coverslip: No
  TOTAL COUNT/FIELDS (iodine-stained inclusions): 0
HIV (IHV-1RF); Conc 0.01 mM
  Syncytia score day 5 (quadruplicate wells): ++++ (50-100% syncytia)
HIV (IHV-1RF); Conc 0.01 mM, day 6
  Syncytia score day 6 (quadruplicate wells): ++++ (50-100% syncytia)
  Mean Optical Readings at 450 nm: 0.48
HIV (IHV-1RF); Conc 0.03 mM
  Syncytia score day 5 (quadruplicate wells): ++++ (50-100% syncytia)
HIV (IHV-1RF); Conc 0.03 mM, day 6
  Syncytia score day 6 (quadruplicate wells): ++++ (50-100% syncytia)
  Mean Optical Readings at 450 nm: 0.4915
HIV (IHV-1RF); Conc 0.1 mM
  Syncytia score day 5 (quadruplicate wells): ++++ (50-100% syncytia)
HIV (IHV-1RF); Conc 0.1 mM, day 6
  Syncytia score day 6 (quadruplicate wells): ++++ (50-100% syncytia)
  Mean Optical Readings at 450 nm: 0.5048
HIV (IHV-1RF); Conc 0.3 mM
  Syncytia score day 5 (quadruplicate wells): ++++ (50-100% syncytia)
HIV (IHV-1RF); Conc 0.3 mM, day 6
  Syncytia score day 6 (quadruplicate wells): ++++ (50-100% syncytia)
  Mean Optical Readings at 450 nm: 0.502
HIV (IHV-1RF); Conc 1 mM
  Syncytia score day 5 (quadruplicate wells): +++ (25-50% syncytia)
HIV (IHV-1RF); Conc 1 mM, day 6
  Mean Optical Readings at 450 nm: 0.5275
HIV (IHV-1RF); Conc 3 mM
  Syncytia score day 5 (quadruplicate wells): 0
HIV (IHV-1RF); Conc 3 mM, day 6
  Syncytia score day 6 (quadruplicate wells): 0
HIV (IHV-1RF); Conc 3 mM, day 6, No Virus 1.84955, Virus Control 0.5091
  Mean Optical Readings at 450 nm: 1.6305
HIV (IHV-1RF); Human immunodeficiency virus 1, C8166, read-out: IC50 (virucidal)
  IC50: 1.9 mM

## COCCOCCOCCOCCOc1ccc(N2C(=O)C=CC2=O)cc1 [Compound 3, PEG(5) phenyl maleimide]
Chlamydia trachomatis
  activity relative to bis maleimide equivalent: less active than its PEG bis (phenyl maleimide) equivalent
  inhibition of the infection of McCoy cells with chlamydia: dose-dependent inhibition
Chlamydia trachomatis; [1]
  IODINE-STAINED INCLUSIONS/FIELD F1: 12 inclusions/field
  IODINE-STAINED INCLUSIONS/FIELD F2: 24 inclusions/field
  IODINE-STAINED INCLUSIONS/FIELD F3: 9 inclusions/field
  IODINE-STAINED INCLUSIONS/FIELD F4: 29 inclusions/field
  IODINE-STAINED INCLUSIONS/FIELD F5: 22 inclusions/field
  MEAN COUNT/FIELD (iodine-stained inclusions): 19 inclusions/field
  TOTAL COUNT/FIELDS (iodine-stained inclusions): 96
Chlamydia trachomatis; [2]
  IODINE-STAINED INCLUSIONS/FIELD F1: 4 inclusions/field
  IODINE-STAINED INCLUSIONS/FIELD F2: 7 inclusions/field
  IODINE-STAINED INCLUSIONS/FIELD F3: 5 inclusions/field
  IODINE-STAINED INCLUSIONS/FIELD F4: 8 inclusions/field
  IODINE-STAINED INCLUSIONS/FIELD F5: 4 inclusions/field
  MEAN COUNT/FIELD (iodine-stained inclusions): 6 inclusions/field
  TOTAL COUNT/FIELDS (iodine-stained inclusions): 28
Chlamydia trachomatis; [3]
  IODINE-STAINED INCLUSIONS/FIELD F1: 0 inclusions/field
Chlamydia trachomatis; [4]
  IODINE-STAINED INCLUSIONS/FIELD F2: 0 inclusions/field
  IODINE-STAINED INCLUSIONS/FIELD F3: 0 inclusions/field
  IODINE-STAINED INCLUSIONS/FIELD F4: 0 inclusions/field
  IODINE-STAINED INCLUSIONS/FIELD F5: 0 inclusions/field
  MEAN COUNT/FIELD (iodine-stained inclusions): 0 inclusions/field
  COMMENTS: inclusions seen on entire coverslip: 15
  TOTAL COUNT/FIELDS (iodine-stained inclusions): 0
HIV (IHV-1RF); Conc 0.003 mM
  Syncytia score day 5 (quadruplicate wells): ++++ (50-100% syncytia)
HIV (IHV-1RF); Conc 0.003 mM, day 6
  Syncytia score day 6 (quadruplicate wells): ++++ (50-100% syncytia)
  Mean Optical Readings at 450 nm: 0.5018
HIV (IHV-1RF); Conc 0.01 mM
  Syncytia score day 5 (quadruplicate wells): +++ (25-50% syncytia)
HIV (IHV-1RF); Conc 0.01 mM, day 6
  Syncytia score day 6 (quadruplicate wells): ++++ (50-100% syncytia)
  Mean Optical Readings at 450 nm: 0.5085
HIV (IHV-1RF); Conc 0.03 mM
  Syncytia score day 5 (quadruplicate wells): +++ (25-50% syncytia)
HIV (IHV-1RF); Conc 0.03 mM, day 6
  Syncytia score day 6 (quadruplicate wells): ++++ (50-100% syncytia)
  Mean Optical Readings at 450 nm: 0.5012
HIV (IHV-1RF); Conc 0.1 mM
  Syncytia score day 5 (quadruplicate wells): +++ (25-50% syncytia)
HIV (IHV-1RF); Conc 0.1 mM, day 6
  Syncytia score day 6 (quadruplicate wells): ++++ (50-100% syncytia)
  Mean Optical Readings at 450 nm: 0.5118
HIV (IHV-1RF); Conc 0.3 mM
  Syncytia score day 5 (quadruplicate wells): +++ (25-50% syncytia)
HIV (IHV-1RF); Conc 0.3 mM, day 6
  Syncytia score day 6 (quadruplicate wells): ++++ (50-100% syncytia)
  Mean Optical Readings at 450 nm: 0.5092
HIV (IHV-1RF); Conc 1 mM
  Syncytia score day 5 (quadruplicate wells): +++ (25-50% syncytia)
HIV (IHV-1RF); Conc 1 mM, day 6
  Syncytia score day 6 (quadruplicate wells): +++ (25-50% syncytia)
  Mean Optical Readings at 450 nm: 0.5268
HIV (IHV-1RF); Human immunodeficiency virus 1, C8166, XTT, day 6, virus treated 10 minutes, read-out: IC50 (virucidal)
  IC50: > 1 mM
HIV (IHV-1RF); at concentrations up to 1.0 mM
  virucidal activity: no virucidal activity
